22 molecules from US20250179078A1, “INHIBITORS OF NLRP3” (PTC THERAPEUTICS, INC., priority 2022, published 2025) can be followed below.

T1 sequence (Q96P20 whole entry): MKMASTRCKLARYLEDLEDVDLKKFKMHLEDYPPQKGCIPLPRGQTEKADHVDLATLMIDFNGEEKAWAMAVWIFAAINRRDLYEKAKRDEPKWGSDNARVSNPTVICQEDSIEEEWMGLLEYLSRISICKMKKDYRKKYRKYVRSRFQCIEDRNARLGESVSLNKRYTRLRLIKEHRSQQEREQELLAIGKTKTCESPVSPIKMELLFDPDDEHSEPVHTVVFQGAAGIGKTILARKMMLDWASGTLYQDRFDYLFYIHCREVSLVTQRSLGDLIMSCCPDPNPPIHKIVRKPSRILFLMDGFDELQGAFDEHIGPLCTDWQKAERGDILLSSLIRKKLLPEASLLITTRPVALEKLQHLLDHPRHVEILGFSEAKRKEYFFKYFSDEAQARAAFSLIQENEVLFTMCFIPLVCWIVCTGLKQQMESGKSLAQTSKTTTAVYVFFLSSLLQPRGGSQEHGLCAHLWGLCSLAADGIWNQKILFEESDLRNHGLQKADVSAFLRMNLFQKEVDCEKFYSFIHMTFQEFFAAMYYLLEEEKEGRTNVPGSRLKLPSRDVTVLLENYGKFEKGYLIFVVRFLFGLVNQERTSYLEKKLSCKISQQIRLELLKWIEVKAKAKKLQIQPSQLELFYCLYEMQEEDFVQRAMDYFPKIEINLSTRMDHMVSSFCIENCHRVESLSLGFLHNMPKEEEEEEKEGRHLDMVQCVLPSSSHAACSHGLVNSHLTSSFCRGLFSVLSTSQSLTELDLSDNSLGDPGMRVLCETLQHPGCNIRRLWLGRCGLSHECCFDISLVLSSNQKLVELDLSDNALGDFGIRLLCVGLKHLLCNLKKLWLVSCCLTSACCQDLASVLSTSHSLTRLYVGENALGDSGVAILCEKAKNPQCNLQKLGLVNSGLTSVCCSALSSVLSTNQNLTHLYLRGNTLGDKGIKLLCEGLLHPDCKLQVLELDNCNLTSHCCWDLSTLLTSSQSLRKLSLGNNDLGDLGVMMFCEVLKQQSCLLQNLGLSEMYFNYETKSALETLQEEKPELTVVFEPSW

The test concerns the target T1, NLRP3 (Homo sapiens, UniProt Q96P20).
T1 construct: host or cells: THP-1 cells differentiated with PMA
Description: IL-1β Secretion Assay (NLRP3-dependent IL1β secretion in THP1 cells). The following applies: PMA-differentiated THP-1 cells; compounds incubated 20 h; 2.5 μM Nigericin 3 h; HTRF IL-1β readout; read-out: IC50 IL-1β Inhibition. It is filed as cell-based. The method, boiled down:
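THP-1 cells differentiated with 100 ng/mL PMA for 24 h, then given compound (7-point 3-fold series, 1:200 from DMSO) for 20 h in RPMI+5% FBS. NLRP3 activated with 2.5 μM nigericin for 3 h; secreted IL-1β measured by HTRF; IC50 from logistic fit of % inhibition.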
The IC50 is the concentration that gives 50% inhibition. As for `O=C1NCCC1Nc1nnc(-c2ccc(C(F)(F)F)cc2OC(F)(F)F)c2cccn12` (stereo not shown) [Compound 124, 3-({1-[2-(trifluoromethoxy)-4-(trifluoromethyl)phenyl]pyrrolo[1,2-d][1,2,4]triazin-4-yl}amino)pyrrolidin-2-one], the IC50 was 1 to 10 nM.

As to `CCN1CC[C@@H](O)[C@@H](Nc2nnc(-c3ccc(C(F)(F)F)cc3C(F)(F)F)c3cc(C)cn23)C1` [Compound 134, (3S,4R)-3-({1-[2,4-bis(trifluoromethyl)phenyl]-7-methylpyrrolo[1,2-d][1,2,4]triazin-4-yl}amino)-1-ethylpiperidin-4-ol], the IC50 is 1 to 10 nM.

Turning to `COc1ccc(-c2nnc(N[C@@H]3CCCC[C@H]3O)n3nc(C)cc23)c(CC(F)(F)F)c1` [Compound 385, (1R,2R)-2-({4-[4-methoxy-2-(2,2,2-trifluoroethyl)phenyl]-2-methylpyrazolo[1,5-d][1,2,4]triazin-7-yl}amino)cyclohexan-1-ol], the IC50 was 1 to 10 nM.

Turning to `OCCN1CCC[C@@H](Nc2nnc(-c3ccc(C(F)(F)F)cc3C(F)(F)F)c3cncn23)C1` [Compound 253, 2-[(3R)-3-({1-[2,4-bis(trifluoromethyl)phenyl]imidazo[1,5-d][1,2,4]triazin-4-yl}amino)piperidin-1-yl]ethan-1-ol], the IC50 fell in the range of 1 to 10 nM.

`COc1ccc(-c2nnc(N[C@@H]3CCC[C@H](O)C3)n3cncc23)c(OC(F)(F)F)c1` [Compound 222, (1S,3R)-3-({1-[4-methoxy-2-(trifluoromethoxy)phenyl]imidazo[1,5-d][1,2,4]triazin-4-yl}amino)cyclohexan-1-ol]: the IC50 lay within 1 to 10 nM.

As for `Oc1cccc(CNc2nnc(-c3ccc(C(F)(F)F)cc3OC(F)F)c3cccn23)c1` [Compound 101, 3-[{{1-[2-(difluoromethoxy)-4-(trifluoromethyl)phenyl]pyrrolo[1,2-d][1,2,4]triazin-4-yl}amino)methyl]phenol], the IC50 lay in the range of 1 to 10 nM.

Consider `CC(Nc1nnc(-c2ccc(OC(F)F)cc2OC(F)(F)F)c2cncn12)c1cccc(O)c1` (stereo not shown) [Compound 259], for which the half-inhibitory concentration (IC50) is < 1 nM.

Regarding `COc1ccc(-c2nnc(N[C@@H]3CCCN(CCO)C3)n3cncc23)c(CC(F)(F)F)c1` [Compound 278, 2-[(3R)-3-({1-[4-methoxy-2-(2,2,2-trifluoroethyl)phenyl]imidazo[1,5-d][1,2,4]triazin-4-yl}amino)piperidin-1-yl]ethan-1-ol], the IC50 was < 1 nM.

On to `Cc1ccc(-c2nnc(N[C@@H]3CCCN(C)C3)n3cncc23)c(CC(F)(F)F)c1` [Compound 317, N-[(3R)-1-methylpiperidin-3-yl]-1-[4-methyl-2-(2,2,2-trifluoroethyl)phenyl]imidazo[1,5-d][1,2,4]triazin-4-amine], for which the IC50 lay within 1 to 10 nM.

Take `Cc1cc2c(-c3ccc(C4CC4)cc3OC(F)F)nnc(N[C@@H]3CCCN(C)C3)n2c1` [Compound 24, 1-[4-cyclopropyl-2-(difluoromethoxy)phenyl]-7-methyl-N-[(3R)-1-methylpiperidin-3-yl]pyrrolo[1,2-d][1,2,4]triazin-4-amine]: the IC50 was < 1 nM.

On to `CCN1CCC[C@@H](Nc2nnc(-c3ccc(C(F)(F)F)cc3OC3CC3)c3cccn23)C1` [Compound 178, 1-[2-(cyclopropyloxy)-4-(trifluoromethyl)phenyl]-N-[(3R)-1-ethylpiperidin-3-yl]pyrrolo[1,2-d][1,2,4]triazin-4-amine], for which the IC50 was in the range of 1 to 10 nM.

Turning to `Cc1ccc(-c2nnc(N[C@@H]3CCCN(C)C3)n3cncc23)c(C(F)(F)F)c1` [Compound 206, N-[(3R)-1-methylpiperidin-3-yl]-1-[4-methyl-2-(trifluoromethyl)phenyl]imidazo[1,5-d][1,2,4]triazin-4-amine], the IC50 is < 1 nM.

`COc1ccc(-c2nnc(N[C@@H]3C[C@@H](F)CN(C)C3)n3cccc23)c(OC(F)(F)F)c1` [Compound 60, N-[(3R,5R)-5-fluoro-1-methylpiperidin-3-yl]-1-[4-methoxy-2-(trifluoromethoxy)phenyl]pyrrolo[1,2-d][1,2,4]triazin-4-amine]: the IC50 was 1 to 10 nM.

On to `C[C@]1(O)C[C@@H](Nc2nnc(-c3ccc(C4CC4)cc3OC(F)F)c3cncn23)C1` [Compound 345, (1s,3s)-3-({1-[4-cyclopropyl-2-(difluoromethoxy)phenyl]imidazo[1,5-d][1,2,4]triazin-4-yl}amino)-1-methylcyclobutan-1-ol], for which the IC50 fell in the range of 1 to 10 nM.

In the case of `CN1C[C@H](F)C[C@@H](Nc2nnc(-c3ccc(C(F)(F)F)cc3C(F)(F)F)c3cncn23)C1` [Compound 252, 1-[2,4-bis(trifluoromethyl)phenyl]-N-[(3R,5R)-5-fluoro-1-methylpiperidin-3-yl]imidazo[1,5-d][1,2,4]triazin-4-amine], the IC50 is 1 to 10 nM.

With `CN1CC[C@@H](O)[C@@H](Nc2nnc(-c3ccc(C(F)(F)F)cc3CC(F)(F)F)c3cncn23)C1` [Compound 289, (3S,4R)-1-methyl-3-({1-[2-(2,2,2-trifluoroethyl)-4-(trifluoromethyl)phenyl]imidazo[1,5-d][1,2,4]triazin-4-yl}amino)piperidin-4-ol], the IC50 lay in the range of 1 to 10 nM.

On to `CN1CCCC(Nc2nnc(-c3ccc(C(F)(F)F)cc3CC(F)(F)F)c3cncn23)C1=O` (stereo not shown) [Compound 329, 1-methyl-3-({1-[2-(2,2,2-trifluoroethyl)-4-(trifluoromethyl)phenyl]imidazo[1,5-d][1,2,4]triazin-4-yl}amino)piperidin-2-one], for which the half-inhibitory concentration (IC50) lay in the range of 1 to 10 nM.

For the molecule `O[C@H]1CCC[C@@H](Nc2nnc(-c3ccc(C(F)(F)F)cc3OC(F)(F)F)c3cccn23)C1` [Compound 122, (1S,3R)-3-({1-[2-(trifluoromethoxy)-4-(trifluoromethyl)phenyl]pyrrolo[1,2-d][1,2,4]triazin-4-yl}amino)cyclohexan-1-ol], the IC50 was in the range of 1 to 10 nM.

As for `O[C@@H]1CCCC[C@H]1Nc1nnc(-c2ccc(C(F)(F)F)cc2OC(F)(F)F)c2ccnn12` [Compound 398, (1R,2R)-2-({4-[2-(trifluoromethoxy)-4-(trifluoromethyl)phenyl]pyrazolo[1,5-d][1,2,4]triazin-7-yl}amino)cyclohexan-1-ol], the IC50 lay within 1 to 10 nM.

`CN1CC[C@@H](O)[C@@H](Nc2nnc(-c3ccc(OC(F)F)cc3OC(F)(F)F)c3cccn23)C1` [Compound 170, (3S,4R)-3-({1-[4-(difluoromethoxy)-2-(trifluoromethoxy)phenyl]pyrrolo[1,2-d][1,2,4]triazin-4-yl}amino)-1-methylpiperidin-4-ol]: the IC50 is < 1 nM.

As for `C[C@]1(O)CCCC[C@@H]1Nc1nnc(-c2ccc(C(F)(F)F)cc2CC(F)(F)F)c2cncn12` (racemic) [Compound 283, (1S,2S)-1-methyl-2-({1-[2-(2,2,2-trifluoroethyl)-4-(trifluoromethyl)phenyl]imidazo[1,5-d][1,2,4]triazin-4-yl}amino)cyclohexan-1-ol AND (1R,2R)-1-methyl-2-({1-[2-(2,2,2-trifluoroethyl)-4-(trifluoromethyl)phenyl]imidazo[1,5-d][1,2,4]triazin-4-yl}amino)cyclohexan-1-ol], the half-inhibitory concentration (IC50) is 1 to 10 nM.

Consider `CCN1CC[C@@H](O)[C@@H](Nc2nnc(-c3ccc(C(F)(F)F)cc3OC(F)F)c3cccn23)C1` [Compound 48, (3S,4R)-3-({1-[2-(difluoromethoxy)-4-(trifluoromethyl)phenyl]pyrrolo[1,2-d][1,2,4]triazin-4-yl}amino)-1-ethylpiperidin-4-ol], for which the IC50 was < 1 nM.
